# Test results as given in patent US10961215B2, “N-aryl and N-heteroaryl piperidine derivatives as liver X receptor beta agonists, compositions, and their use” (Merck Sharp & Dohme Corp., priority 2016, dated 2021).
# Legend:
# [1] = target: T1, GST tagged LXRbeta LBD (ligand binding domain) (Homo sapiens, UniProt P55055); experiment: LanthaScreen TR-FRET Liver X Receptor Coactivator Assay, LXR beta-LBD (co-activator recruitment; IP and % Emax relative to T0901317); format: biochemical; settings: for EC50: Inflection Point of co-activator recruitment, LXR beta-LBD, TR-FRET; for Emax: efficacy at max dose in relation to reference T0901317, LXR beta-LBD, read-out: LXR beta actiivty at max dose (%)
# T1 construct: purchased Invitrogen pv4658.pps
# T1 sequence (P55055 222-460 limits assumed): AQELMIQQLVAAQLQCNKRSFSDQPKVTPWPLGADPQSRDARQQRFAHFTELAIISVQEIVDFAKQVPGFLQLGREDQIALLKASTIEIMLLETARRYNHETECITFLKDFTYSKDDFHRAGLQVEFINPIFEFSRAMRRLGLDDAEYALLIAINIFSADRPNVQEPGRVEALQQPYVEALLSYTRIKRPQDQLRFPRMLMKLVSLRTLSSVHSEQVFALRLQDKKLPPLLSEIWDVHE
# Summary of the method: (§1)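 Compounds were first combined with the GST-LBD protein. A premixed fluorescein coactivator peptide and terbium-labelled anti-GST antibody was then added. Plates were incubated at room temperature and TR-FRET measured.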
# [2] = target: T2, GST tagged LXRalpha LBD (ligand binding domain) (Homo sapiens, UniProt Q13133); experiment: LanthaScreen TR-FRET Liver X Receptor Coactivator Assay, LXR alpha-LBD (co-activator recruitment; IP and % Emax relative to T0901317); format: biochemical; settings: for LXR alpha IP (nM) / EC50: Inflection Point of co-activator recruitment, LXR alpha-LBD, TR-FRET; for Emax: efficacy at max dose in relation to reference T0901317, LXR alpha-LBD, read-out: LXR alpha actiivty at max dose (%)
# T2 construct: purchased Invitrogen pv4655
# T2 sequence (Q13133 209-447 limits assumed): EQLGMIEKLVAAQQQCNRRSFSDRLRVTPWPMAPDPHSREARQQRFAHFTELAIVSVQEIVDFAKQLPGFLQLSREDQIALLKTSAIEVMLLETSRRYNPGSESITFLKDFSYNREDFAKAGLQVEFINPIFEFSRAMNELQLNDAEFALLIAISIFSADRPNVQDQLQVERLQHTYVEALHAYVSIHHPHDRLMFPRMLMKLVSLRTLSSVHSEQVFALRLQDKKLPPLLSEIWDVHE
# Summary of the method: as §1
Structure (SMILES),EC50 [1],Emax [1],LXR alpha IP (nM) [2],Emax [2],EC50 [2]
"COc1cccc([C@@](O)(C(=O)N(C)CCCC2(F)CCN(c3ccc(C(=O)N(C)C)c(Cl)c3)CC2)C(F)(F)F)c1 [Example 12-2, (R)-2-chloro-4-(4-fluoro-4-(3-(3,3,3-trifluoro-2-hydroxy-2-(3-methoxyphenyl)-N-methylpropanamido)propyl)piperidin-1-yl)-N,N-dimethylbenzamide]",218 nM,25%,No IP,4%,
"COc1cccc([C@@](O)(C(=O)N(C)CCCC2(F)CCN(c3ccc(C(=O)N(C)C)c(Cl)n3)CC2)C(F)(F)F)c1 [Example 12-3, (R)-2-chloro-6-(4-fluoro-4-(3-(3,3,3-trifluoro-2-hydroxy-2-(3-methoxyphenyl)-N-methylpropanamido)propyl)piperidin-1-yl)-N,N-dimethylnicotinamide]",151 nM,58%,No IP,12%,
"CN(C)C(=O)c1ccc(N2CCC(F)(CCCN(C)C(=O)[C@](O)(c3ccccc3)C(F)(F)F)CC2)nc1Cl [Example 12-4, (R)-2-chloro-6-(4-fluoro-4-(3-(3,3,3-trifluoro-2-hydroxy-N-methyl-2-phenylpropanamido)propyl)piperidin-1-yl)-N,N-dimethylnicotinamide]",266 nM,46%,No IP,0%,
COc1cccc([C@@](O)(C(=O)N(C)CCC2CC3(CCN(c4ccc(C(=O)N(C)C)c(Cl)n4)CC3)C2)C(F)(F)F)c1 [Example 13-1],34 nM,50%,,26%,472 nM
"CNC(=O)c1ccc(N2CCC3(CC2)CC(CCN(C)C(=O)[C@](O)(c2cccc(OC)c2)C(F)(F)F)C3)nc1Cl [Example 13-2, 2-chloro-N-methyl-6-(2-(2-((R)-3,3,3-trifluoro-2-hydroxy-2-(3-methoxyphenyl)-N-methylpropanamido)ethyl)-7-azaspiro[3.5]nonan-7-yl)nicotinamide]",142 nM,49%,No IP,1%,
"COc1cccc([C@@](O)(C(=O)N(C)CCC2CC3(CCN(c4ccc(C(=O)NC5CC5)c(Cl)n4)CC3)C2)C(F)(F)F)c1 [Example 13-3, 2-chloro-N-cyclopropyl-6-(2-(2-((R)-3,3,3-trifluoro-2-hydroxy-2-(3-methoxyphenyl)-N-methylpropanamido)ethyl)-7-azaspiro[3.5]nonan-7-yl)nicotinamide]",654 nM,35%,No IP,1%,
"COc1cccc([C@@](O)(C(=O)N(C)CC2CC3(CCN(c4ccc(C(=O)N(C)C)c(Cl)n4)CC3)C2)C(F)(F)F)c1 [Example 14-1, 2-chloro-N,N-dimethyl-6-(2-(((R)-3,3,3-trifluoro-2-hydroxy-2-(3-methoxyphenyl)-N-methylpropanamido)methyl)-7-azaspiro[3.5]nonan-7-yl)nicotinamide]",35 nM,42%,No IP,5%,
"CNC(=O)c1ccc(N2CCC3(CC2)CC(CN(C)C(=O)[C@](O)(c2cccc(OC)c2)C(F)(F)F)C3)nc1Cl [Example 14-2, 2-chloro-N-methyl-6-(2-(((R)-3,3,3-trifluoro-2-hydroxy-2-(3-methoxyphenyl)-N-methylpropanamido)methyl)-7-azaspiro[3.5]nonan-7-yl)nicotinamide]",473 nM,30%,No IP,8%,
"CCOc1cccc([C@@](O)(C(=O)N(C)C[C@@H]2C[C@@H]2C2CCN(c3ccc(C(=O)N(C)C)c(Cl)n3)CC2)C(F)(F)F)c1 [Example 15-1, 2-chloro-6-(4-((1R,2R)-2-(((R)-2-(3-ethoxyphenyl)-3,3,3-trifluoro-2-hydroxy-N-methylpropanamido)methyl)cyclopropyl)piperidin-1-yl)-N,N-dimethylnicotinamide]",34 nM,66%,No IP,9%,
"CN(C)C(=O)c1ccc(N2CCC([C@H]3C[C@H]3CN(C)C(=O)[C@](O)(c3cccc(OC4CC4)c3)C(F)(F)F)CC2)nc1Cl [Example 15-8, 2-chloro-6-(4-((1R,2R)-2-(((R)-2-(3-cyclopropoxyphenyl)-3,3,3-trifluoro-2-hydroxy-N-methylpropanamido)methyl)cyclopropyl)piperidin-1-yl)-N,N-dimethylnicotinamide]",74 nM,59%,No IP,0%,
CN(C)C(=O)c1ccc(N2CCC([C@H]3C[C@H]3CNC(=O)[C@](O)(c3ccccc3)C(F)(F)F)CC2)nc1Cl [Example 15-9],393 nM,54%,,39%,4220 nM
"COc1cccc([C@@](O)(C(=O)NC[C@@H]2C[C@@H]2C2CCN(c3ccc(C(=O)N(C)C)c(Cl)n3)CC2)C(F)(F)F)c1 [Example 15-10, 2-chloro-N,N-dimethyl-6-(4-((1R,2R)-2-(((R)-3,3,3-trifluoro-2-hydroxy-2-(3-methoxyphenyl)propanamido)methyl)cyclopropyl)piperidin-1-yl)nicotinamide]",442 nM,38%,No IP,4%,
"CNC(=O)c1ccc(N2CCC([C@H]3C[C@H]3CNC(=O)[C@](O)(c3cccc(OC)c3)C(F)(F)F)CC2)nc1Cl [Example 15-11, 2-chloro-N-methyl-6-(4-((1R,2R)-2-(((R)-3,3,3-trifluoro-2-hydroxy-2-(3-methoxyphenyl)propanamido)methyl)cyclopropyl)piperidin-1-yl)nicotinamide]",4440 nM,36%,No IP,1%,

# The next compounds have a lower EC50 [1] than those just listed; values first:
EC50 [1],Emax [1],LXR alpha IP (nM) [2],Emax [2],EC50 [2],Structure (SMILES)
10 nM,64%,,25%,289 nM,"CN(C)C(=O)c1ccc(N2CCC([C@H]3C[C@H]3CN(C)C(=O)[C@](O)(c3ccccc3)C(F)(F)F)CC2)nc1Cl [Example 15-2, 2-chloro-N,N-dimethyl-6-(4-((1R,2R)-2-(((R)-3,3,3-trifluroo-2-hydroxy-N-methyl-2-phenylpropanamido)methyl)cyclopropyl)piperidin-1-yl)nicotinamide]"
17 nM,58%,No IP,10%,,"COc1cccc([C@@](O)(C(=O)N(C)C[C@@H]2C[C@@H]2C2CCN(c3ccc(C(=O)N(C)C)c(Cl)n3)CC2)C(F)(F)F)c1 [Example 15-3, 2-chloro-N,N-dimethyl-6-(4-((1R,2R)-2-(((R)-3,3,3-trifluoro-2-hydroxy-2-(3-methoxyphenyl)-N-methylpropanamido)methyl)cyclopropyl)piperidin-1-yl)nicotinamide]"
23 nM,50%,,15%,623 nM,"CN(C)C(=O)c1ccc(N2CCC([C@H]3C[C@H]3CN(C)C(=O)[C@](O)(c3cccc(OC(F)(F)F)c3)C(F)(F)F)CC2)nc1Cl [Example 15-4, 2-chloro-N,N-dimethyl-6-(4-((1R,2R)-2-(((R)-3,3,3-trifluoro-2-hydroxy-N-methyl-2-(3-(trifluoromethoxy)phenyl)propanamido)methyl)cyclopropyl)piperidin-1-yl)nicotinamide]"
16 nM,75%,No IP,18%,,"CN(C)C(=O)c1ccc(N2CCC([C@H]3C[C@H]3CN(C)C(=O)[C@](O)(c3cccc(C4CC4)c3)C(F)(F)F)CC2)nc1Cl [Example 15-5, 2-chloro-6-(4-((1R,2R)-2-(((R)-2-(3-cyclopropylphenyl)-3,3,3-trifluoro-2-hydroxy-N-methylpropanamido)methyl)cyclopropyl)piperidin-1-yl)-N,N-dimethylnicotinamide]"
9 nM,29%,No IP,4%,,"CN(C)C(=O)c1ccc(N2CCC([C@H]3C[C@H]3CN(C)C(=O)[C@](O)(c3cc(Cl)cc(Cl)c3)C(F)(F)F)CC2)nc1Cl [Example 15-6, 2-chloro-6-(4-((1R,2R)-2-(((R)-2-(3,5-dichlorophenyl)-3,3,3-trifluoro-2-hydroxy-N-methylpropanamido)methyl)cyclopropyl)piperidin-1-yl)-N,N-dimethylnicotinamdie]"
26 nM,53%,No IP,11%,,"CN(C)C(=O)c1ccc(N2CCC([C@H]3C[C@H]3CN(C)C(=O)[C@](O)(c3cccc(C(F)(F)F)c3)C(F)(F)F)CC2)nc1Cl [Example 15-7, 2-chloro-N,N-dimethyl-6-(4-((1R,2R)-2-(((R)-3,3,3-trifluoro-2-hydroxy-N-methyl-2-(3-(trifluoromethyl)phenyl)rpropanamido)methyl)cyclopropyl)piperidin-1-yl)nicotinamide]"
